Test results: the supplement of paper PMC10307832

Tests used:
Assay in all cases: relative viability (nuclei count vs DMSO), 5 days (fraction); higher = more cells survive
[1] = compound: C1/C(=C\C2=CC=CS2)/C(=O)/C(=C/C3=CC=CS3)/C1 + COc1cc2c(Oc3ccc(NC(=O)C4(C(=O)Nc5ccc(F)cc5)CC4)cc3F)ccnc2cc1OCCCN1CCOCC1 [Foretinib] (partner 0.25 µM)
Summary of the method: (§1)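 Nuclei were stained with Hoechst during a one-step fixation (final 0.05% Triton X-100, 1% formaldehyde, 1 ug/ml Hoechst) carried out 5 days after dosing, then counted on 4× images. The cells, lung cancer lines in 1536-well plates, had been dosed by pin tool the day after seeding with one drug alone or a fixed anchor-drug dose plus five library-drug doses (not always all listed) in √10 steps. Relative viability is the nuclei count in treated wells divided by that in vehicle wells, and each value is the median of duplicate plates.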

Lestaurtinib + Foretinib = compound: C[C@]12O[C@H](C[C@]1(O)CO)n1c3ccccc3c3c4c(c5c6ccccc6n2c5c31)CNC4=O [Lestaurtinib] + COc1cc2c(Oc3ccc(NC(=O)C4(C(=O)Nc5ccc(F)cc5)CC4)cc3F)ccnc2cc1OCCCN1CCOCC1 [Foretinib] (partner 0.25 µM)
Summary of the method: as §1

[2] = compound: C1/C(=C\C2=CC=CS2)/C(=O)/C(=C/C3=CC=CS3)/C1 + Cc1cc(Nc2cc(N3CCN(C)CC3)nc(Sc3ccc(NC(=O)C4CC4)cc3)n2)n[nH]1 [Tozasertib] (partner 0.1 µM)
Summary of the method: as §1

[3] = compound: C1/C(=C\C2=CC=CS2)/C(=O)/C(=C/C3=CC=CS3)/C1 + CC(=O)Nc1cccc(-n2c(=O)n(C3CC3)c(=O)c3c(Nc4ccc(I)cc4F)n(C)c(=O)c(C)c32)c1 [Trametinib] (partner 0.02 µM)
Summary of the method: as §1

Cell Line	relative viability ([1]; first compound 0.2 µM)	relative viability ([1]; first compound 0.6325 µM)	relative viability ([1]; first compound 2 µM)	relative viability ([1]; first compound 6.325 µM)	relative viability ([1]; first compound 20 µM)	relative viability (Lestaurtinib + Foretinib; first compound 0.005 µM)	relative viability (Lestaurtinib + Foretinib; first compound 0.01581 µM)	relative viability (Lestaurtinib + Foretinib; first compound 0.05 µM)	relative viability (Lestaurtinib + Foretinib; first compound 0.1581 µM)	relative viability (Lestaurtinib + Foretinib; first compound 0.5 µM)	relative viability ([2]; first compound 0.2 µM)	relative viability ([2]; first compound 0.6325 µM)	relative viability ([2]; first compound 2 µM)	relative viability ([2]; first compound 6.325 µM)	relative viability ([2]; first compound 20 µM)	relative viability ([3]; first compound 0.2 µM)	relative viability ([3]; first compound 0.6325 µM)	relative viability ([3]; first compound 2 µM)	relative viability ([3]; first compound 6.325 µM)	relative viability ([3]; first compound 20 µM)
NCI-H647	1.21	1.22	1.11	0.948	1.21	1.41	1.15	0.705	0.478	0.16	0.382	0.379	0.296	0.271	0.238	0.464	0.49	0.407	0.467	0.447
NCI-H650	1.02	0.926	0.933	0.945	0.999	1.04	1.17	0.839	0.689	0.584	0.857	0.716	0.675	0.689	0.786	1.11	1	0.884	0.943	0.944
EKVX	0.82	0.696	0.603	0.615	0.778	0.681	0.752	0.75	0.925	0.656	0.405	0.452	0.329	0.424	0.394	0.415	0.307	0.368		0.295
NCI-H460	1.02	1.06	1.02	0.881	0.99	0.96	1.11	0.951	1.28	0.9	0.377	0.438	0.401	0.323	0.321	0.158	0.305	0.163	0.0691	0.139
NCI-H2342	1.08	1.28	1.17	0.989	1.1	1.17	1.06	1.08	1.08	0.922	0.521	0.567	0.561	0.443	0.459	0.859	0.819	0.801	0.672	0.899
LCLC-97TM1	0.965	0.97	0.995	0.797	0.943	0.925	1.08	0.556	0.462	0.238	0.239	0.233	0.227	0.213	0.195	0.216	0.198	0.221	0.174	0.218
COR-L23	1.09	1.09	0.874	0.859	0.958	1.03	0.908	0.8	0.825	0.391	0.223	0.203	0.197	0.185	0.193	0.553	0.575	0.674	0.508	0.633
NCI-H1355	1.01	0.877	0.995	0.913	0.954	1.03	1.08	0.696	0.802	0.356	0.565	0.577	0.603	0.562	0.48	0.42	0.43	0.457	0.341	0.407
NCI-H1666	0.99	1.01	0.965	0.865	0.958	1.1	1.07	1.6	1.02	0.595	0.574	0.658	0.609	0.538	0.538	0.855	0.86	0.791	0.861	0.77
EPLC-272H	0.602	0.776	0.657	0.594	0.601	0.542	0.538	0.282	0.325	0.126	0.293	0.325	0.322	0.283	0.287	0.333	0.263	0.3	0.243	0.267
ChaGo-K-1	0.912	1.01	0.857	0.797	0.41	0.946	1.04	0.828	0.788	0.373	0.241	0.235	0.259	0.212	0.197	0.9	0.949	0.838	0.675	0.478
NCI-H1651	0.797	0.815	0.785	0.671	0.692	0.85	0.8	0.844	0.865	0.53	0.731	0.671	0.837	0.596	0.718	0.861	0.775	0.816	0.807	0.843
SW 1573	0.879	0.965	0.939	0.843	0.825	0.895	0.889	0.826	0.668	0.518	0.175	0.13	0.176	0.158	0.139	0.637	0.573	0.674	0.491	0.596
PC-3 [JPC-3]	1.11	1.05	1.01	0.865	1.11	1.01	1.1	0.938	0.902	0.558	0.924	0.843	0.824	0.746	0.896		0.731	0.753	0.613	0.759
LOU-NH91	0.953	0.921	0.919	0.827	0.944	0.921	0.842	0.844	0.651	0.459	0.755	0.705	0.657	0.604	0.596	0.777	0.775	0.781	0.75	0.806
PC-14	0.942	0.932	0.937	0.847	0.885	0.963	1.09	0.619	0.517	0.687	0.604	0.59	0.597	0.571	0.595	0.792	0.829	0.761	0.696	0.663
